Results published in PubChem BioAssay AID1117328 (Cheminformatics & Chemogenomics Research Group (CCRG), …, 2015).
Active and inactive are the calls of the source. How the calls were made is not given here.

molecular target: Ribosomal protein S6 kinase beta-1 (Homo sapiens) (UniProt P23443); assay: p70S6K1 kinase inhibitors, biochemical, LANCE Ultra TR-FRET (AID 1117328); details: LANCE Ultra TR-FRET kinase assay, at 20 µM (top of the series)
Sequence (P23443 whole entry, looked up): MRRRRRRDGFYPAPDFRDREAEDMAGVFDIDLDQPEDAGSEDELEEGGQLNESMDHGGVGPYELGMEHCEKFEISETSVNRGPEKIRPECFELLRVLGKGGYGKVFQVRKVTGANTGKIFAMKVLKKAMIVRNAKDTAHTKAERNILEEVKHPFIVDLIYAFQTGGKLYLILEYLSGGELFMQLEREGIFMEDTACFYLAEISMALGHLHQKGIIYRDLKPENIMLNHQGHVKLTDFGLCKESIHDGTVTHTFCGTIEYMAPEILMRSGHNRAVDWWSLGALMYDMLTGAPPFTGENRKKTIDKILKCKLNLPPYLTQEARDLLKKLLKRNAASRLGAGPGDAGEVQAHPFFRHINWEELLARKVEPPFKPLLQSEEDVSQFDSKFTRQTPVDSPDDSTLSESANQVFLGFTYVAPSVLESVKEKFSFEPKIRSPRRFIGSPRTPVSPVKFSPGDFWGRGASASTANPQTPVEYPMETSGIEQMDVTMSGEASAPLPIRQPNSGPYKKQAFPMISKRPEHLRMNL

Row | Compound | inhibition
1 | CCCN(CCC)C(=O)C(CCC(=O)OCCCN1CCN(CCOC(=O)Cc2c(C)n(C(=O)c3ccc(Cl)cc3)c3ccc(OC)cc23)CC1)NC(=O)c1ccccc1 (stereo not drawn) | -0.47% (inactive)
2 | COC(=O)Nc1nc2ccc(C(=O)C3CC3)cc2[nH]1 | 12.7% (inactive)
3 | COc1ccc2cc1Oc1ccc(cc1)C[C@H]1c3c(cc4c(c3Oc3cc5c(cc3OC)CCN(C)[C@@H]5C2)OCO4)CCN1C | -3.96% (inactive)
4 | S=c1nc[nH]c2nc[nH]c12 | 22.2% (inactive)
5 | Cc1cc(O)c2ccccc2c1O | 39.1% (inactive)
6 | COC(=O)Nc1nc2ccc(C(=O)c3cccs3)cc2[nH]1 | -23.9% (inactive)
7 | [O-][n+]1ccccc1SSc1cccc[n+]1[O-] | -10.6% (inactive)
8 | Cc1nc2ccc(CN(C)c3ccc(C(=O)N[C@@H](CCC(=O)O)C(=O)O)s3)cc2c(=O)[nH]1 | 26.6% (inactive)
9 | COc1c(C)c2c(c(O)c1C/C=C(\C)CCC(=O)OCCN1CCOCC1)C(=O)OC2 | 1.51% (inactive)
10 | CCC(C)n1ncn(-c2ccc(N3CCN(c4ccc(OC[C@H]5CO[C@](Cn6cncn6)(c6ccc(Cl)cc6Cl)O5)cc4)CC3)cc2)c1=O (stereo partly drawn) | -9.45% (inactive)
11 | C=CC(=O)Nc1cc2c(Nc3ccc(F)c(Cl)c3)ncnc2cc1OCCCN1CCOCC1 | 10.8% (inactive)
12 | CC[C@@H]([C@H](C)O)n1ncn(-c2ccc(N3CCN(c4ccc(OC[C@@H]5CO[C@@](Cn6cncn6)(c6ccc(F)cc6F)C5)cc4)CC3)cc2)c1=O | -23% (inactive)
13 | CN(C)c1ccc2nc3ccc(=[N+](C)C)cc-3sc2c1 | -350% (inactive)
14 | COc1cccc2c1C(=O)c1c(O)c3c(c(O)c1C2=O)C[C@@](O)(C(C)=O)C[C@@H]3O[C@H]1C[C@H](N)[C@H](O)[C@H](C)O1 | -19.5% (inactive)
15 | COC(=O)[C@H]1[C@H]2C[C@@H]3c4[nH]c5cc(OC)ccc5c4CCN3C[C@H]2C[C@@H](OC(=O)/C=C/c2ccc(O)c(OC)c2)[C@@H]1OC | 7.92% (inactive)
16 | Nc1ccc2cc3ccc(N)cc3nc2c1 | -285% (inactive)
17 | Cn1cnc([N+](=O)[O-])c1Sc1ncnc2nc[nH]c12 | -0.72% (inactive)
18 | COC(=O)Nc1nc2ccc(C(=O)c3ccccc3)cc2[nH]1 | -18.7% (inactive)
19 | Oc1c(Cl)cc(Cl)c2cccnc12 | 8.07% (inactive)
20 | Cc1ccccc1C(=O)Nc1ccc(C(=O)N2CCCC(N(C)C)c3ccccc32)cc1 (stereo not drawn) | -7.07% (inactive)
21 | COc1cc([C@@H]2c3cc4c(cc3[C@H](O)[C@H]3COC(=O)[C@H]23)OCO4)cc(OC)c1OC | 3.8% (inactive)

Row | Compound | inhibition
22 | COc1ccc(-c2nc3ccc(C4=NNC(=O)CC4C)cc3[nH]2)cc1 (stereo not drawn) | -32.5% (inactive)
23 | O=c1[nH]c(=O)n([C@H]2C[C@H](O)[C@@H](CO)O2)cc1C(F)(F)F | 5.58% (inactive)
24 | CCCCCCCCCCCCCC[N+](C)(C)C | 3.96% (inactive)
25 | COc1cc(NCc2ccc3nc(N)nc(N)c3c2C)cc(OC)c1OC | 38% (inactive)
26 | CCN(CC)CCOc1ccc(/C(=C(\Cl)c2ccccc2)c2ccccc2)cc1 | 7.41% (inactive)
27 | COC(=O)Nc1nc2ccc(S(=O)c3ccccc3)cc2[nH]1 (stereo not drawn) | -8.8% (inactive)
28 | CCCSc1ccc2nc(NC(=O)OC)[nH]c2c1 | -2.9% (inactive)
29 | CCCCCCCCCCCCCCCCCCNC(=O)OC1CCN(C(=O)OC[C@H](COC(=O)N(Cc2cccc[n+]2CC)C(=O)c2ccccc2OC)OC)CC1 | -363% (inactive)
30 | COc1ccc(-c2ccc3cc(C(=O)O)ccc3c2)cc1C12CC3CC(CC(C3)C1)C2 | 29% (inactive)
31 | C=C(C)[C@H]1Cc2c(ccc3c2O[C@@H]2COc4cc(OC)c(OC)cc4[C@@H]2C3=O)O1 | -6.37% (inactive)
32 | Cc1ccc2nc(N)[nH]c(=O)c2c1Sc1ccncc1 | 50.1%
33 | O=C(NOCC1CC1)c1ccc(F)c(F)c1Nc1ccc(I)cc1Cl | -1.64% (inactive)
34 | Cc1ccc([N+](=O)[O-])[c]2c1[O][Hg]2 | 33.5% (inactive)
35 | O=C(Nc1ccc([N+](=O)[O-])cc1Cl)c1cc(Cl)ccc1O | 49.9% (inactive)
36 | Cc1cc(C2CCCCC2)n(O)c(=O)c1 | -2.62% (inactive)
37 | CN1CC[C@H](c2c(O)cc(O)c3c(=O)cc(-c4ccccc4Cl)oc23)[C@H](O)C1 | 48.6% (inactive)
38 | O=C(O)c1ccc(-n2nc(-c3ccccc3O)nc2-c2ccccc2O)cc1 | 0.21% (inactive)
39 | C[C@@]12C(=O)OC(=O)[C@]1(C)C1CCC2O1 | 6.38% (inactive)
40 | CC(C)C[C@H](NC(=O)[C@H](CCc1ccccc1)NC(=O)CN1CCOCC1)C(=O)N[C@@H](Cc1ccccc1)C(=O)N[C@@H](CC(C)C)C(=O)[C@@]1(C)CO1 | -1.98% (inactive)
41 | COc1cc(-c2ccc(=O)[nH]n2)ccc1OC(F)F | 3.71% (inactive)
42 | CCCOc1ccc2nc(NC(=O)OC)[nH]c2c1 | -4.03% (inactive)

Row | Compound | inhibition
43 | Oc1c(Cl)cc(Cl)cc1Sc1cc(Cl)cc(Cl)c1O | 40.3% (inactive)
44 | Nc1nc(=S)c2[nH]cnc2[nH]1 | 3.34% (inactive)
45 | CC[C@]1(O)C[C@H]2CN(CCc3c([nH]c4ccccc34)[C@@](C(=O)OC)(c3cc4c(cc3OC)N(C=O)[C@H]3[C@@](O)(C(=O)OC)[C@H](OC(C)=O)[C@]5(CC)C=CCN6CC[C@]43[C@@H]65)C2)C1 | 5.42% (inactive)
46 | CC[C@@]1(O)C(=O)OCc2c1cc1n(c2=O)Cc2c-1nc1ccccc1c2/C=N/OC(C)(C)C | -2.02% (inactive)
47 | COc1cc2nc(N3CCN(C(=O)c4ccco4)CC3)nc(N)c2cc1OC | 28.5% (inactive)
48 | Cc1cc(C)c(/C=C2\C(=O)Nc3ccccc32)[nH]1 | 45.3% (inactive)
49 | Cc1nc(Nc2ncc(C(=O)Nc3c(C)cccc3Cl)s2)cc(N2CCN(CCO)CC2)n1 | 5.32% (inactive)
50 | CC(=O)Oc1ccc(C2(c3ccc(OC(C)=O)cc3)Oc3ccccc3NC2=O)cc1 | -1.96% (inactive)
51 | CC(C)(C)C1CCC(CC2=C(O)c3ccccc3C(=O)C2=O)CC1 (stereo not drawn) | -2.09% (inactive)
52 | O=C(CCCCCCC(=O)Nc1ccccc1)NO | 4.26% (inactive)
53 | CCCCCCCCCCCCCCCC[n+]1ccccc1 | -110% (inactive)
54 | O=C(CCl)c1ccc(Cl)cc1Cl | -8.03% (inactive)
55 | CC[C@]1(O)C[C@@H]2CN(CCc3c([nH]c4ccccc34)[C@@](C(=O)OC)(c3cc4c(cc3OC)N(C)[C@H]3[C@@](O)(C(=O)OC)[C@H](OC(C)=O)[C@]5(CC)C=CCN6CC[C@]43[C@@H]65)C2)C1 | -1.14% (inactive)
56 | CNC(=O)c1ccccc1Sc1ccc2c(/C=C/c3ccccn3)n[nH]c2c1 | -17.9% (inactive)
57 | NC(=NCCCCCCN=C(N)/N=C(\N)Nc1ccc(Cl)cc1)/N=C(\N)Nc1ccc(Cl)cc1 | 29.9% (inactive)
58 | C[n+]1c2cc(N)ccc2cc2ccc(N)cc21 (tested in a mixture with another compound) | 65.3%
59 | COC(=O)Nc1nc2ccc(Sc3ccccc3)cc2[nH]1 | -5.93% (inactive)
60 | CC(C)C[C@H](NC(=O)[C@H](Cc1ccccc1)NC(=O)c1cnccn1)B(O)O | 6.59% (inactive)
61 | O=C1c2c(O)ccc(O)c2C(=O)c2c(NCCNCCO)ccc(NCCNCCO)c21 | 21.1%
62 | COC(=O)c1nc(Cl)c(Cl)nc1N | 1.07% (inactive)
63 | CCCCc1oc2ccccc2c1C(=O)c1cc(I)c(OCCN(CC)CC)c(I)c1 | -4.08% (inactive)

Row | Compound | inhibition
64 | O=[N+]([O-])c1ccc(O)c2ncccc12 | 37.6% (inactive)
65 | CCCCC1C(=O)N(c2ccccc2)N(c2ccc(O)cc2)C1=O (stereo not drawn) | 0.82% (inactive)
66 | CCCCCCNC(=O)n1cc(F)c(=O)[nH]c1=O | -0.86% (inactive)
67 | CNC(=O)c1cc(Oc2ccc(NC(=O)Nc3ccc(Cl)c(C(F)(F)F)c3)cc2)ccn1 | 64.8%
68 | CC(=O)[C@]1(O)Cc2c(O)c3c(c(O)c2[C@@H](O[C@H]2C[C@H](N)[C@H](O)[C@H](C)O2)C1)C(=O)c1ccccc1C3=O | -128% (inactive)
69 | O=c1c(-c2ccccc2)c1-c1ccccc1 | 5.11% (inactive)
70 | O=c1[nH]c(=O)n([C@H]2C[C@H](O)[C@@H](CO)O2)cc1F | -6.04% (inactive)
71 | CSc1ccc2c(c1)C(N1CCN(C)CC1)Cc1ccccc1S2 (stereo not drawn) | 6.51% (inactive)
72 | Cc1cc2c(C(C)C)c(O)c(O)c(C=O)c2c(O)c1-c1c(C)cc2c(C(C)C)c(O)c(O)c(C=O)c2c1O | -7.01% (inactive)
73 | CC(C)(C)C(=O)OCOP(=O)(COCCn1cnc2c(N)ncnc21)OCOC(=O)C(C)(C)C | -0.94% (inactive)
74 | CCc1nc(N)nc(N)c1-c1ccc(Cl)cc1 | 11.7% (inactive)
75 | Cc1cc(=O)c2c(O)c3c(O)cc(=O)c4c3c3c(cc(O)c1c23)C(C)(C)C=4O | 12.5% (inactive)
76 | COCc1c(C(C)C)nc(C(C)C)c(/C=C/[C@@H](O)C[C@@H](O)CC(=O)O)c1-c1ccc(F)cc1 | 1.86% (inactive)
77 | Oc1c(I)cc(I)c2cccnc12 | 1.27% (inactive)
78 | CCN(CC)CCNc1ccc(CO)c2sc3ccccc3c(=O)c12 | 37.2%
79 | CCC1=C[C@@H]2CN(C1)Cc1c([nH]c3ccccc13)[C@@](C(=O)OC)(c1cc3c(cc1OC)N(C)[C@H]1[C@@](O)(C(=O)OC)[C@H](OC(C)=O)[C@]4(CC)C=CCN5CC[C@]31[C@@H]54)C2 | -0.16% (inactive)
80 | CCN(CC)CCNC(=O)c1c(C)[nH]c(/C=C2\C(=O)Nc3ccc(F)cc32)c1C | 91.7%
81 | Cc1ccc(Nc2nccc(N(C)c3ccc4c(C)n(C)nc4c3)n2)cc1S(N)(=O)=O | 5.82% (inactive)
82 | Cc1nc(N)nc(N)c1-c1ccc(Cl)c(Cl)c1 | 5.16% (inactive)
83 | COc1cc2c(c(OC)c1OC)-c1ccc(OC)c(=O)cc1[C@@H](NC(C)=O)CC2 | -2.55% (inactive)
